In patent US11753374B2, “Compounds for the treatment of acute and chronic kidney disease” (Southern Research Institute, priority 2020, dated 2023):

Test system: heme oxygenase-1 (HO-1)
Test: High throughput screen: HO-1 promoter/enhancer luciferase reporter (pHOGL3/4.5+220) in stable HEK293 cells
Format: cell-based
Conditions: Homo sapiens; for EC50: Table 1, evaluation of biaryl aminomaleimides, HO-1 induction; for Emax: Table 1, unit inferred, Emax as % of 5 μM hemin
Procedure: The generation of the pHOGL3/4.5+220 construct is described in Deshane, et al. (2010) “SpI regulates chromatin looping between an intronic enhancer and distal promoter of the human heme oxygenase-1 gene in renal cells” J Biol Chem 285(22): 16476-86. See also FIG. 1.
Briefly, BamHI sites were added to the 4.5-kb PCR product generated by long-range PCR from a bacterial artificial chromosome clone containing portions of chromosome 22 (accession no. Z82244), including the HO-1 gene. This fragment was cloned into the BglII restriction site of the multiple cloning region to make the parental clone (pHOGL3/4.5). The 220-bp intronic enhancer was amplified with SalI sites on either end and cloned into the SalI site of the vector to generate pHOGL3/4.5+220.
In order to generate cells that stably express luciferase expression vectors that lack a mammalian antibiotic selection cassette, HEK293 cells were co-transfected with either pHOGL3/4.5+220 (Deshane et al, 2010) or the Triple Mutant construct (Liby, Hock et al, 2005; Hock et al, 2007) and pcDNA3.1 Zeocin using Lipofectamine 2000. Cells were cultured in Zeocin (400 ug/ml; Invitrogen) for selection. Individual clones were sorted by flow cytometry and plated into a 96-well plate at a density of one cell per well. Clones were maintained and expanded in complete media (DMEM/10% FBS/1× antibiotic-antimycotic) supplemented with 100 ug/ml Zeocin, and incubated at 37° C. in 5% carbon dioxide. Incorporation of the Luciferase expression vectors was validated by assaying for luciferase.
A library of over 150,000 compounds, as well as a library of over 4,000 FDA approved compounds, were used in the HTS assay. […] This led to the identification of approximately 800 compounds that induce HO-1 and have desirable chemical structures. […] The In-Cell Western assay was optimized to screen for endogenous HO-1 in a high throughput platform, and results were validated by Western blot, real-time PCR, and enzyme activity assays. Additional RNA sequencing studies highlighted a role for the transcription factor Nrf2 and other targets in HO-1 induction by several small molecules.

SMILES	EC50 [µM]	Emax [%]
O=C1C=C(Nc2cc(F)c(O)c(F)c2)C(=O)N1c1ccccc1 [Compound 1, 3-(3,5-difluoro-4-hydroxy-anilino)-1-phenyl-pyrrole-2,5-dione]	3.08	90.6
O=C1C=C(Nc2ccc(O)cc2)C(=O)N1c1ccccc1 [Compound 2]	1.81	38.1
O=C1C=C(Nc2ccc(O)c(F)c2)C(=O)N1c1ccccc1 [Compound 3]	1.86	56.4
O=C1C=C(Nc2ccc(O)cc2F)C(=O)N1c1ccccc1 [Compound 4]	1.78	38.9
O=C1C=C(Nc2cc(Cl)c(O)c(Cl)c2)C(=O)N1c1ccccc1 [Compound 5]	31.3	72.8
O=C1C=C(Nc2ccc(O)cc2Cl)C(=O)N1c1ccccc1 [Compound 6]	1.74	20.4
O=C1C=C(Nc2ccc(O)c(Cl)c2)C(=O)N1c1ccccc1 [Compound 7]	> 50	–
O=C1C=C(Nc2ccc(O)c(F)c2F)C(=O)N1c1ccccc1 [Compound 8]	5.49	41.7
O=C1C=C(Nc2ccc(O)c(Cl)c2F)C(=O)N1c1ccccc1 [Compound 9]	1.69	33.7
O=C1C=C(Nc2c(F)cc(O)cc2F)C(=O)N1c1ccccc1 [Compound 10]	> 50	–
O=C1C=C(Nc2ccc(O)c(C(F)(F)F)c2)C(=O)N1c1ccccc1 [Compound 11]	> 50	–
Cc1cc(NC2=CC(=O)N(c3ccccc3)C2=O)cc(C)c1O [Compound 12]	7.55	39.3
O=C1C=C(Nc2ccc(O)c3ncccc23)C(=O)N1c1ccccc1 [Compound 13]	> 50	–
O=C1C=C(Nc2cc(F)c(O)cc2F)C(=O)N1c1ccccc1 [Compound 14]	2.97	49.1
O=C1C=C(Nc2cc(F)cc(F)c2O)C(=O)N1c1ccccc1 [Compound 15]	> 50	–
O=C1C=C(Nc2cc(Cl)c(Cl)cc2O)C(=O)N1c1ccccc1 [Compound 16]	> 50	–
O=C1C=C(Nc2ccc(F)c(F)c2O)C(=O)N1c1ccccc1 [Compound 17]	12	54.4

SMILES	EC50 [µM]	Emax [%]
O=C1C=C(Nc2cc(O)c(F)cc2F)C(=O)N1c1ccccc1 [Compound 18]	> 50	–
O=C1C=C(Nc2cc(O)c(Cl)cc2F)C(=O)N1c1ccccc1 [Compound 19]	> 50	–
O=C1C=C(Nc2cc(O)c(Cl)cc2Cl)C(=O)N1c1ccccc1 [Compound 20]	> 50	–
O=C1C=C(Nc2cc(F)c(F)c(F)c2)C(=O)N1c1ccccc1 [Compound 21]	> 50	–
O=C1C=C(N2CCN(c3ccc(O)cc3)CC2)C(=O)N1c1ccccc1 [Compound 22]	> 50	–
COc1c(F)cc(NC2=CC(=O)N(c3ccccc3)C2=O)cc1F [Compound 23]	> 50	–
O=C(O)c1ccc(NC2=CC(=O)N(c3ccccc3)C2=O)cc1 [Compound 24]	> 50	–
Nc1ccc(NC2=CC(=O)N(c3ccccc3)C2=O)cc1 [Compound 25]	> 50	–
O=C1C=C(Nc2cc(F)c(O)c(F)c2)C(=O)N1c1ccc(F)cc1 [Compound 26]	4.21	80.7
O=C1C=C(Nc2cc(F)c(O)c(F)c2)C(=O)N1c1cc(F)cc(F)c1 [Compound 27]	> 50	72.6
O=C1C=C(Nc2cc(F)c(O)c(F)c2)C(=O)N1c1cc(F)c(F)c(F)c1 [Compound 28]	16.9	31.3
O=C1C=C(Nc2cc(F)c(O)c(F)c2)C(=O)N1c1ccc(Cl)cc1 [Compound 29]	3.34	110
COc1ccc(N2C(=O)C=C(Nc3cc(F)c(O)c(F)c3)C2=O)cc1 [Compound 30]	2.91	111
O=C1C=C(Nc2cc(F)c(O)c(F)c2)C(=O)N1c1ccc(OC(F)(F)F)cc1 [Compound 31]	2.31	64
O=C1C=C(Nc2cc(F)c(O)c(F)c2)C(=O)N1c1ccc2c(c1)OCO2 [Compound 32]	12.9	38.1
COc1cc(N2C(=O)C=C(Nc3cc(F)c(O)c(F)c3)C2=O)cc(OC)c1OC [Compound 33]	2.08	28.4
COc1c(Cl)cccc1N1C(=O)C=C(Nc2cc(F)c(O)c(F)c2)C1=O [Compound 34]	> 50	28.3

Now from value to compound, other results behind:

EC50 [µM]	SMILES	Emax [%]
2.1	Cc1ccc(N2C(=O)C=C(Nc3cc(F)c(O)c(F)c3)C2=O)cc1 [Compound 35]	96.8
0.89	CC(C)c1ccc(N2C(=O)C=C(Nc3cc(F)c(O)c(F)c3)C2=O)cc1 [Compound 36]	52.5
1.56	Cc1ccc(N2C(=O)C=C(Nc3cc(F)c(O)c(F)c3)C2=O)cc1C [Compound 37]	57.2
2.29	Cc1ccc(N2C(=O)C=C(Nc3cc(F)c(O)c(F)c3)C2=O)c(C)c1 [Compound 38]	57
4.32	O=C1C=C(Nc2cc(F)c(O)c(F)c2)C(=O)N1c1ccc(C(F)(F)F)cc1 [Compound 39]	94.9
> 50	N#Cc1ccc(N2C(=O)C=C(Nc3cc(F)c(O)c(F)c3)C2=O)cc1 [Compound 40]	–
11.5	O=C1C=C(Nc2cc(F)c(O)c(F)c2)C(=O)N1c1ccc(N2CCCCC2)cc1 [Compound 41]	70.4
> 50	O=C1C=C(Nc2cc(F)c(O)c(F)c2)C(=O)N1c1ccc(-c2ncco2)cc1 [Compound 42]	–
1.03	O=C1C=C(Nc2cc(F)c(O)c(F)c2)C(=O)N1Cc1ccccc1 [Compound 43]	67.5
19.1	COC(=O)c1ccc(N2C(=O)C=C(Nc3cc(F)c(O)c(F)c3)C2=O)cc1 [Compound 44]	99.6
36.1	O=C1C=C(Nc2cc(F)c(O)c(F)c2)C(=O)N1c1cccc2ccccc12 [Compound 45]	141
0.43	O=C1C=C(Nc2cc(F)c(O)c(F)c2)C(=O)N1CCc1ccccc1 [Compound 46]	68.5
19.7	O=C1C=C(Nc2cc(F)c(O)c(F)c2)C(=O)N1c1ccccc1C(F)(F)F [Compound 47]	91.1
13.7	O=C1C=C(Nc2cc(F)c(O)c(F)c2)C(=O)N1c1ccccc1F [Compound 48]	82.9
8.37	COc1c(F)cc(N2C(=O)C=C(Nc3cc(F)c(O)c(F)c3)C2=O)cc1F [Compound 49]	69.6
15.3	O=C1C=C(Nc2cc(F)c(O)c(F)c2)C(=O)N1c1ccc(O)cc1 [Compound 50]	75.2

EC50 [µM]	SMILES	Emax [%]
15.4	NC(=O)c1cccc(N2C(=O)C=C(Nc3cc(F)c(O)c(F)c3)C2=O)c1 [Compound 51]	62.4
14	COc1cc(N2C(=O)C=C(Nc3cc(F)c(O)c(F)c3)C2=O)ccc1F [Compound 52]	53.1
3.35	CN(C)c1ccc(N2C(=O)C=C(Nc3cc(F)c(O)c(F)c3)C2=O)cc1 [Compound 53]	94.1
20	COc1ccccc1N1C(=O)C=C(Nc2cc(F)c(O)c(F)c2)C1=O [Compound 54]	54.9
2.27	O=C1C=C(Nc2cc(F)c(O)c(F)c2)C(=O)N1c1ccc(OC(F)F)cc1 [Compound 55]	93.3
8.39	COc1ccc(N2C(=O)C=C(Nc3cc(F)c(O)c(F)c3)C2=O)cc1C#N [Compound 56]	36.1
5.67	COc1ccc(N2C(=O)C=C(Nc3cc(F)c(O)c(F)c3)C2=O)cc1F [Compound 57]	98.7
1.73	CC(C)(C)c1ccc(N2C(=O)C=C(Nc3cc(F)c(O)c(F)c3)C2=O)cc1 [Compound 58]	53.3
9.22	O=C1C=C(Nc2cc(F)c(O)c(F)c2)C(=O)N1c1ccc(-c2cscn2)cc1 [Compound 59]	43.9
22.2	O=C1C=C(Nc2cc(F)c(O)c(F)c2)C(=O)N1c1ccc(N2CCOCC2)cc1 [Compound 60]	66.9
3.77	O=C1C=C(Nc2cc(F)c(O)c(F)c2)C(=O)N1c1ccc(Oc2ccccc2)cc1 [Compound 61]	33.4
2.75	O=C1C=C(Nc2cc(F)c(O)c(F)c2)C(=O)N1c1ccc(-c2ccccc2)cc1 [Compound 62]	34.6
3.19	O=C1C=C(Nc2cc(F)c(O)c(F)c2)C(=O)N1c1cccc(F)c1 [Compound 63]	30
3.33	O=C1C=C(Nc2cc(F)c(O)c(F)c2)C(=O)N1c1cccc(C(F)(F)F)c1 [Compound 64]	23.9
15.6	COC(=O)c1cccc(N2C(=O)C=C(Nc3cc(F)c(O)c(F)c3)C2=O)c1 [Compound 65]	42.8
